Test results reported in the supplement of paper PMC10307832.

Legend:
Assay in all cases: relative viability (nuclei count vs DMSO), 5 days (fraction); higher = more cells survive
[1] = compound: C[C@@H](N)c1ccc(C(=O)Nc2ccnc3[nH]ccc23)cc1 + C[C@]1(O)C[C@@H](c2nc(-c3ccc4ccc(-c5ccccc5)nc4c3)c3c(N)nccn32)C1 [Linsitinib] (partner 1 µM)
Procedure, shortened: (§1)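 After 5 days of treatment, lung cancer cells in 1536-well plates were fixed and stained in a single step (final 0.05% Triton X-100, 1% formaldehyde, 1 ug/ml Hoechst) and their nuclei counted on 4× images. Treatment had been applied by pin tool the day after seeding as one drug alone or as a fixed anchor-drug dose with five library-drug doses (not always all listed) in √10 steps. Relative viability is the nuclei count of treated wells divided by that of vehicle wells, and values are medians of duplicate plates.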

[2] = compound: O[C@H]1CC[C@H](Nc2ncc3nc(Nc4c(F)cc(F)cc4F)n([C@H]4CCOC4)c3n2)CC1 [Tanzisertib] + CC(=O)Nc1cccc(-n2c(=O)n(C3CC3)c(=O)c3c(Nc4ccc(I)cc4F)n(C)c(=O)c(C)c32)c1 [Trametinib] (partner 0.02 µM)
Procedure, shortened: as §1

[3] = compound: O[C@H]1CC[C@H](Nc2ncc3nc(Nc4c(F)cc(F)cc4F)n([C@H]4CCOC4)c3n2)CC1 [Tanzisertib] + CC(C)C[C@H](NC(=O)[C@H](Cc1ccccc1)NC(=O)c1cnccn1)B(O)O [Bortezomib] (partner 0.002 µM)
Procedure, shortened: as §1

[4] = compound: O[C@H]1CC[C@H](Nc2ncc3nc(Nc4c(F)cc(F)cc4F)n([C@H]4CCOC4)c3n2)CC1 [Tanzisertib] + CS(=O)(=O)CCNCc1ccc(-c2ccc3ncnc(Nc4ccc(OCc5cccc(F)c5)c(Cl)c4)c3c2)o1 [Lapatinib] (partner 2 µM)
Procedure, shortened: as §1

For UMC-11, the relative viability ([1]; first compound 0.04 µM) was 1.02, the relative viability ([1]; first compound 0.1265 µM) was 1.09 and the relative viability ([1]; first compound 0.4 µM) was 1.06. For the same cell line, the relative viability ([1]; first compound 1.265 µM) was 0.958, the relative viability ([1]; first compound 4 µM) was 0.641 and the relative viability ([2]; first compound 0.08 µM) was 0.735. It also gave a relative viability ([2]; first compound 0.253 µM) of 0.695, a relative viability ([2]; first compound 0.8 µM) of 0.759 and a relative viability ([2]; first compound 2.53 µM) of 0.719. It also gave a relative viability ([2]; first compound 8 µM) of 0.764, a relative viability ([3]; first compound 0.08 µM) of 0.754 and a relative viability ([3]; first compound 0.253 µM) of 0.749. For the same cell line, the relative viability ([3]; first compound 0.8 µM) was 0.825, the relative viability ([3]; first compound 2.53 µM) was 0.709 and the relative viability ([3]; first compound 8 µM) was 0.946. It also gave a relative viability ([4]; first compound 0.08 µM) of 1.13, a relative viability ([4]; first compound 0.253 µM) of 0.974 and a relative viability ([4]; first compound 0.8 µM) of 1.1. The relative viability ([4]; first compound 2.53 µM) was 0.89 and the relative viability ([4]; first compound 8 µM) was 0.84.
